Test results from patent publication US12540131B2 (Merck Sharp & Dohme LLC, priority 2019, dated 2026).

Each compound was assayed against GST tagged truncated human mutant G2019S LRRK2 (Homo sapiens (Human), UniProt Q5S007, G2019S) (assay: LRRK2 Km ATP LanthaScreen Assay). Settings: G2019S LRRK2, 134 μM ATP (Km ATP), mean values.
Format: biochemical
Summary of the method: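 Enzyme (GST-tagged, truncated) was preincubated with compound for 15 min at RT in 50 mM Tris pH 8.5, 10 mM MgCl2, 0.01% Brij-35, 1 mM EGTA, 2 mM DTT and 0.05 mM orthovanadate. Fluorescein-LRRKtide and 134 μM ATP (Km) were then added for 90 min. EDTA and Tb-anti-pERM antibody stopped the reaction; the TR-FRET 520/495 ratio gave 4-parameter IC50s, reported as mean pIC50.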

GST tagged truncated human mutant G2019S LRRK2, sequence (Q5S007 970-2527 G2019S): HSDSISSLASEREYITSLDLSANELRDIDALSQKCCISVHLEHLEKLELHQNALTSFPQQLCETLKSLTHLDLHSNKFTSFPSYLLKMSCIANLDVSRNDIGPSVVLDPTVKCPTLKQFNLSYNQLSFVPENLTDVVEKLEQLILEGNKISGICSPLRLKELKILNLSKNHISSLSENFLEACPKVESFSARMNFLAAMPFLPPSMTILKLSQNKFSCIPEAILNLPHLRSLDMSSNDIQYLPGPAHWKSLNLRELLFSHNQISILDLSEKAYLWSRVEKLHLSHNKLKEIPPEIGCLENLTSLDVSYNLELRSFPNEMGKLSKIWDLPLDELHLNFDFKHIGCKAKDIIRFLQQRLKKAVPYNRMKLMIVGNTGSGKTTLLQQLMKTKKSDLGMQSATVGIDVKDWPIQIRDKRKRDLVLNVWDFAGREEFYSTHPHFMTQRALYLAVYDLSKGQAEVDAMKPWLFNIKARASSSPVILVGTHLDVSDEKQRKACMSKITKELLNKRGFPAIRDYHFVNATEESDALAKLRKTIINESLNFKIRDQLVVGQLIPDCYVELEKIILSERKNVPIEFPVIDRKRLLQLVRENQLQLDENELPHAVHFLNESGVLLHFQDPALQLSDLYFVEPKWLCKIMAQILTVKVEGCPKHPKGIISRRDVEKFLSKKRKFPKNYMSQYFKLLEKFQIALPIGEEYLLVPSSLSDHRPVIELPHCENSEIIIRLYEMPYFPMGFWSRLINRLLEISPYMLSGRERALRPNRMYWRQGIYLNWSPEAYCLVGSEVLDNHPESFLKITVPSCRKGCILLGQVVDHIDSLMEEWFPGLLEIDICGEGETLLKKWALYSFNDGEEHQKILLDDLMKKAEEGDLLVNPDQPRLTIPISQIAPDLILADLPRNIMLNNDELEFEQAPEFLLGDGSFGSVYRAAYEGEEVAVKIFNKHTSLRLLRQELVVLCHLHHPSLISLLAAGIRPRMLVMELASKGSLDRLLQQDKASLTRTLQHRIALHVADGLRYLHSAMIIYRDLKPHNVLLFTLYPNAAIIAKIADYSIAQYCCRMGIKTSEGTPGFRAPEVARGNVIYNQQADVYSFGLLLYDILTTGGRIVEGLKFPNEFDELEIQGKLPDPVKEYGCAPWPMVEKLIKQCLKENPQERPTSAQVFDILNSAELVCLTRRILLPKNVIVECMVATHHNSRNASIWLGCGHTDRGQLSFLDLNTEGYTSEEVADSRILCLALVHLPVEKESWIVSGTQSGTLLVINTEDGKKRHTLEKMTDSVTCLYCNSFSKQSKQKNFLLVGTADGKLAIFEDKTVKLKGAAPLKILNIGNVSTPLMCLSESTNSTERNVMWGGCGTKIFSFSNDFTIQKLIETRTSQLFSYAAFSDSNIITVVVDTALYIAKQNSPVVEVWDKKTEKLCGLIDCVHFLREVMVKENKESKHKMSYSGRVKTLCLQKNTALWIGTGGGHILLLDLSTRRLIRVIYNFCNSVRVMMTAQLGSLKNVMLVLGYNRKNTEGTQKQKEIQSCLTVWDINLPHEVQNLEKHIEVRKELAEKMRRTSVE

Structure (SMILES)	LRRK2 pIC50
Cc1c(Nc2ncc3cc(Cl)c([C@@H]4CCN(C5COC5)C[C@H]4F)cc3n2)cnn1C1CC1(F)F (single isomer, unassigned) [Ex-4.178, (R)(3S,4S) or (S)(3S,4S) or (R)(3R,4R) or (S)(3R,4R) 6-chloro-N-[1-(2,2-difluorocyclopropyl)-5-methyl-1H-pyrazol-4-yl]-7-[(3R,4R)-3-fluoro-1-(oxetan-3-yl)piperidin-4-yl]quinazolin-2-amine]	8.58
CC1(n2ncc(Nc3ncc4cc(Cl)c([C@H]5CCNC[C@@H]5F)cc4n3)c2Cl)CC1 (single isomer, unassigned) [Ex-4.92, (3S,4S) or (3R,4R) 6-chloro-N-[5-chloro-1-(1-methylcyclopropyl)-1H-pyrazol-4-yl]-7-(3-fluoropiperidin-4-yl)quinazolin-2-amine]	>9.20
N#Cc1cc2cnc(Nc3cnn(C4CC4(F)F)c3Cl)nc2cc1[C@@H]1CCN(C2COC2)C[C@H]1F (single isomer, unassigned) [Ex-6.5, (R)(3S,4S) or (S)(3S,4S) or (R)(3R,4R) or (S)(3R,4R) 2-((5-chloro-1-(2,2-difluorocyclopropyl)-1H-pyrazol-4-yl)amino)-7-(3-fluoro-1-(oxetan-3-yl)piperidin-4-yl)quinazoline-6-carbonitrile]	>9.20
Cc1c(Nc2ncc3cc(Cl)c(C4CCN(C[C@H](O)c5ccc(F)cc5)CC4)cc3n2)cnn1C1CC1 [Ex-4.213, (1R)-2-(4-{6-chloro-2-[(1-cyclopropyl-5-methyl-1H-pyrazol-4-yl)amino]quinazolin-7-yl}piperidin-1-yl)-1-(4-fluorophenyl)ethan-1-ol]	8.50
Cc1cc2cnc(Nc3cnn(C)c3C)nc2cc1C1CCN([C@@H]2COC[C@@H]2O)CC1 (single isomer, unassigned) [Ex-2.79, (3S,4S) or (3R,4R) 4-(4-{2-[(1,5-dimethyl-1H-pyrazol-4-yl)amino]-6-methylquinazolin-7-yl}piperidin-1-yl)oxolan-3-ol]	>9.20
CC1(N2CCC(c3cc4nc(Nc5cnn(C6(C)CC6)c5Cl)ncc4cc3Cl)CC2)COC1 [Ex-8.15, 6-chloro-N-[5-chloro-1-(1-methylcyclopropyl)-1H-pyrazol-4-yl]-7-[1-(3-methyloxetan-3-yl)piperidin-4-yl]quinazolin-2-amine]	>9.20
Cc1cc2cnc(Nc3cnn(C)c3C(F)(F)F)nc2cc1C1CCN([C@]2(C)COC[C@@H]2O)CC1 (single isomer, unassigned) [Ex-5.16, (3S,4S) or (3R,4R) 4-methyl-4-(4-(6-methyl-2-((1-methyl-5-(trifluoromethyl)-1H-pyrazol-4-yl)amino)quinazolin-7-yl)piperidin-1-yl)tetrahydrofuran-3-ol]	>9.20
Cc1c(Nc2ncc3cc(Cl)c(C4CCN(C[C@H](O)CN5CCCC5=O)CC4)cc3n2)cnn1C1CC1 [Ex-4.216, 1-[(2S)-3-(4-{6-chloro-2-[(1-cyclopropyl-5-methyl-1H-pyrazol-4-yl)amino]quinazolin-7-yl}piperidin-1-yl)-2-hydroxypropyl]pyrrolidin-2-one]	9.05
Cc1c(Nc2ncc3cc(Cl)c(C4CCN([C@]5(C)COC[C@@H]5O)CC4)cc3n2)cnn1C (single isomer, unassigned) [Ex-2.77, (3S,4S) or (3R,4R) 4-(4-{6-chloro-2-[(1,5-dimethyl-1H-pyrazol-4-yl)amino]quinazolin-7-yl}piperidin-1-yl)-4-methyloxolan-3-ol]	8.01
F[C@@H]1CN(C2COC2)CC[C@H]1c1cc2nc(Nc3cnn(C4CC4(F)F)c3Cl)ncc2cc1Cl (single isomer, unassigned) [Ex-8.29, (R)(3S,4S) or (S)(3S,4S) or (R)(3R,4R) or (S)(3R,4R) 6-chloro-N-[5-chloro-1-(2,2-difluorocyclopropyl)-1H-pyrazol-4-yl]-7-[3-fluoro-1-(oxetan-3-yl)piperidin-4-yl]quinazolin-2-amine]	8.88
Clc1cc2cnc(Nc3cnn(C4CC4)c3Cl)nc2cc1C1CC2CCC(C1)N2C1COC1 (stereo not drawn) [Ex-4.112, cis or trans 6-chloro-N-(5-chloro-1-cyclopropyl-1H-pyrazol-4-yl)-7-(8-(oxetan-3-yl)-8-azabicyclo[3.2.1]octan-3-yl)quinazolin-2-amine]	>9.20
Cc1cc2cnc(Nc3cnn(C4CC4)c3C)nc2cc1[C@@H]1CCN(C2COC2)C[C@H]1F (single isomer, unassigned) [Ex-5.3, (3S,4S) or (3R,4R) N-(1-cyclopropyl-5-methyl-1H-pyrazol-4-yl)-7-[3-fluoro-1-(oxetan-3-yl)piperidin-4-yl]-6-methylquinazolin-2-amine]	8.96
CC1(N2CCC(c3cc4nc(Nc5cnn(C67CC(C(C)(C)O)(C6)C7)c5)ncc4cc3Cl)CC2)COC1 [Ex-2.58, 2-{3-[4-({6-chloro-7-[1-(3-methyloxetan-3-yl)piperidin-4-yl]quinazolin-2-yl}amino)-1H-pyrazol-1-yl]bicyclo[1.1.1]pentan-1-yl}propan-2-ol]	9.17
COC[C@]12C[C@](n3ncc(Nc4ncc5cc(Cl)c(C6CCN(C7(C)COC7)CC6)cc5n4)c3Cl)(C1)C2 [Ex-8.40]	>9.20
F[C@@H]1CN(C2COC2)CC[C@H]1c1cc2nc(Nc3cnn(C4CC4(F)F)c3Cl)ncc2cc1Cl (single isomer, unassigned) [Ex-8.28, (R)(3S,4S) or (S)(3S,4S) or (R)(3R,4R) or (S)(3R,4R) 6-chloro-N-[5-chloro-1-(2,2-difluorocyclopropyl)-1H-pyrazol-4-yl]-7-[3-fluoro-1-(oxetan-3-yl)piperidin-4-yl]quinazolin-2-amine]	9.04
COCC12CC(n3ncc(Nc4ncc5cc(Cl)c(C6CCN(C7COC7)CC6)cc5n4)c3C)(C1)C2 [Ex-2.31, 6-chloro-N-{1-[3-(methoxymethyl)bicyclo[1.1.1]pentan-1-yl]-5-methyl-1H-pyrazol-4-yl}-7-[1-(oxetan-3-yl)piperidin-4-yl]quinazolin-2-amine]	>9.20
Cc1c(Nc2ncc3cc(Cl)c(C4CCN(C[C@@H](O)c5cccc(F)c5)CC4)cc3n2)cnn1C1CC1 [Ex-4.196, (1S)-2-(4-{6-chloro-2-[(1-cyclopropyl-5-methyl-1H-pyrazol-4-yl)amino]quinazolin-7-yl}piperidin-1-yl)-1-(3-fluorophenyl)ethan-1-ol]	8.87
CN1CCC(F)(c2cc3nc(Nc4cnn(C5CC5)c4Cl)ncc3cc2Cl)CC1 [Ex-4.36, 6-chloro-N-(5-chloro-1-cyclopropyl-1H-pyrazol-4-yl)-7-(4-fluoro-1-methylpiperidin-4-yl)quinazolin-2-amine]	8.29
Cc1cc2cnc(Nc3cnn(C4CC4)c3Cl)nc2cc1[C@@H]1CCN(C2COC2)C[C@H]1F (single isomer, unassigned) [Ex-4.82, (3S,4S) or (3R,4R) N-(5-chloro-1-cyclopropyl-1H-pyrazol-4-yl)-7-[3-fluoro-1-(oxetan-3-yl)piperidin-4-yl]-6-methylquinazolin-2-amine]	>9.20
CC1(CN2CCC(c3cc4nc(Nc5cnn(C6CC6)c5Cl)ncc4cc3Cl)CC2)COC1 [Ex-4.20, 6-chloro-N-(5-chloro-1-cyclopropyl-1H-pyrazol-4-yl)-7-{1-[(3-methyloxetan-3-yl)methyl]piperidin-4-yl}quinazolin-2-amine]	8.11
Cc1c(Nc2ncc3cc(Cl)c(C4CCN(C5(C)CCCC5O)CC4)cc3n2)cnn1C1CC1 (single isomer, unassigned) [Ex-1.19, (1R,2S) or (1S,2R) or (1S,2S) or (1R,2R) 2-(4-(6-chloro-2-((1-cyclopropyl-5-methyl-1H-pyrazol-4-yl)amino)quinazolin-7-yl)piperidin-1-yl)-2-methylcyclopentan-1-ol]	7.59
CN(C)CC12CC(n3cc(Nc4ncc5cc(Cl)c(C6CCN(C7(C)COC7)CC6)cc5n4)cn3)(C1)C2 [Ex-2.59, 6-chloro-N-(1-{3-[(dimethylamino)methyl]bicyclo [1.1.1]pentan-1-yl}-1H-pyrazol-4-yl)-7-[1-(3-methyloxetan-3-yl)piperidin-4-yl]quinazolin-2-amine]	>9.20
Cc1cc(Nc2ncc3cc(Cl)c(C4CCN(C)CC4F)cc3n2)sn1 (stereo in doubt) [Ex-4.52, (3S,4R) or (3R,4R) 6-chloro-7-(3-fluoro-1-methylpiperidin-4-yl)-N-(3-methyl-1,2-thiazol-5-yl)quinazolin-2-amine]	9.06

Same assay, conditions: G2019S LRRK2, 134 μM ATP (Km ATP), mean values; read-out: LRRK2 pIC50 (converted)

Structure (SMILES)	IC50 [nM]
Cc1c(Nc2ncc3cc(Cl)c(C4CCN(CC(O)C(F)(F)F)CC4)cc3n2)cnn1C1CC1 (single isomer, unassigned) [Ex-4.12, (R) or (S) 3-(4-(6-chloro-2-((1-cyclopropyl-5-methyl-1H-pyrazol-4-yl)amino)quinazolin-7-yl)piperidin-1-yl)-1,1,1-trifluoropropan-2-ol]	< 0.631
CC(O)(Cn1ncc(Nc2ncc3cc(Cl)c(C4CCN(C5COC5)CC4)cc3n2)c1Cl)C(F)(F)F (single isomer, unassigned) [Ex-8.27, (S) or (R) 3-[5-chloro-4-({6-chloro-7-[1-(oxetan-3-yl)piperidin-4-yl]quinazolin-2-yl}amino)-1H-pyrazol-1-yl]-1,1,1-trifluoro-2-methylpropan-2-ol]	0.851
Cc1c(Nc2ncc3cc(Cl)c(C4CCN(C5COC5)CC4)cc3n2)cnn1C12CC(C1)C2 [Ex-2.21, N-[1-(bicyclo[1.1.1]pentan-1-yl)-5-methyl-1H-pyrazol-4-yl]-6-chloro-7-[1-(oxetan-3-yl)piperidin-4-yl]quinazolin-2-amine]	0.676
